Results from patent publication US20050118310A1, “Formulations of compounds derived from natural sources and their use with irradiation for food preservation” (priority 2001, published 2005).
Marks after values point to notes of the source that are not given here.

How the values were obtained:
[1] = test system: S. typhi; assay: Effect of carvacrol concentration on survival of S. typhi in ground beef irradiated at 0.5 kGy; format: cell-based, Salmonella typhi (ATCC 19430); settings: ground beef irradiated at 0.50 kGy; for Increase in Sensitivity: vs 0% carvacrol
Text: (§1) The irradiation treatments of ground beef samples for D10 determination was done using UC-15B irradiator (MDS-Nordion International Inc., Kanata, ON, Canada) equipped with a ^60Co source at a dose rate of 14.42 kGy/h). Irradiation doses used for D10 determination were ranged from 0.1 to 0.6 kGy for E. coli and from 0.50 to 2.0 kGy for S. typhi. Under frozen condition, the irradiation doses ranged from 0.1 to 0.7 kGy for E. coli and from 0.5 to 3.0 kGy for S. typhi. For the determination of the effect of various concentrations of carvacrol on the irradiation sensitivity, samples were irradiated at 0.25 kGy for E. coli and at 0.5 kGy for S. typhi. Irradiation doses used for D10 determination in chicken breast ranged from 0.1 to 0.7 kGy for E. coli and from 0.25 to 2.0 kGy for S. typhi. Samples were analysed immediately after irradiation to determine the microbial count.
(§2) Samples were homogenised for 2 min in sterile peptone water (0.1%) using a Lab-blender 400 stomacher (Laboratory Equipment, London, UK). From this mixture, serial dilutions were prepared and appropriate ones were pour-plated in tryptic soy agar (TSA) (Difco, Laboratories, Detroit, Mich., USA) and incubated at 35° C., 24 hours for the numeration of E. coli and S. typhi.
(§3) The effect of various concentrations of carvacrol in irradiated ground beef was evaluated in order to determine if lower concentrations of carvacrol could also increase the irradiation sensitivity of E. coli and S. typhi in ground beef. For these experiments, sterile ground beef was contaminated with either E. coli or S. typhi to a final concentration of 10^5 CFU/g. Various concentrations of carvacrol ranging from 0 to 2.0% were added to the ground beef samples and transferred in portions of 25 g each to sterile petri plates (60×15 nmu) then stored at 4° C. until irradiation treatment (approximately 15 h).

[2] = test system: E. coli; assay: Effect of carvacrol concentration on survival of E. coli in ground beef irradiated at 0.25 kGy; format: cell-based, Escherichia coli (ATCC 25922); settings: for Increase in Sensitivity: vs 0% carvacrol
Text: as §1, §2, §3

For `Cc1ccc(C(C)C)cc1O` [Carvacrol, carvacrol], the “Log CFU/g” value ([1]; carvacrol 0.50%) was 3.526 ± 0.061^b Log CFU/g, the “Increase in Sensitivity” value ([1]; carvacrol 0.50%) was 15.4% and the “Log CFU/g” value ([1]; carvacrol 1.00%) was 2.545 ± 0.112^d Log CFU/g. The “Increase in Sensitivity” value ([1]; carvacrol 1.00%) was 39.0%, the “Log CFU/g” value ([1]; carvacrol 1.75%) was 0.000 ± 0.000^g Log CFU/g and the “Increase in Sensitivity” value ([1]; carvacrol 1.75%) was 100%. The “Log CFU/g” value ([1]; carvacrol 2.00%) was 0.000 ± 0.000^g Log CFU/g, the “Increase in Sensitivity” value ([1]; carvacrol 2.00%) was 100% and the “Log CFU/g” value ([2]; carvacrol 0.2%) was 2.948 ± 0.088^b Log CFU/g. The “Increase in Sensitivity” value ([2]; carvacrol 0.2%) was 4.8%, the “Log CFU/g” value ([2]; carvacrol 0.4%) was 2.948 ± 0.068^b Log CFU/g and the “Increase in Sensitivity” value ([2]; carvacrol 0.4%) was 4.8%. For the same molecule, the “Log CFU/g” value ([2]; carvacrol 0.6%) was 2.660 ± 0.037^c Log CFU/g, the “Increase in Sensitivity” value ([2]; carvacrol 0.6%) was 14.1% and the “Log CFU/g” value ([2]; carvacrol 0.8%) was 1.198 ± 0.065^d Log CFU/g. For the same molecule, the “Increase in Sensitivity” value ([2]; carvacrol 0.8%) was 61.3%, the “Log CFU/g” value ([2]; carvacrol 1.0%) was 0.843 ± 0.000^e Log CFU/g and the “Increase in Sensitivity” value ([2]; carvacrol 1.0%) was 72.8%. For the same molecule, the “Log CFU/g” value ([2]; carvacrol […]) was 0.000 ± 0.000^f Log CFU/g and the “Increase in Sensitivity” value ([2]; carvacrol […]) was 100%.
